{"source": "patent US12594267B2", "about": "“Capsid inhibitors for the treatment of HIV” (Gilead Sciences, Inc., priority 2018, dated 2026)", "key": {"[1]": {"assay": "PK after oral administration of spray-dried dispersion (SDD) tablets in dogs", "type": "in vivo", "details": "beagle dogs, 300 mg fixed dose", "procedure": "A tablet, prepared from a spray-dried dispersion of a sodium salt of the compound of Formula (Ia), was prepared in a composition shown in Table T below (with an outer film coating made of Opadry® II White 85F18422, wherein the outer film coating provides a 3% weight gain based on the uncoated tablet) and was administered orally at 300 mg fixed dose to 6 beagle dogs (Table U) and the pharmacokinetic (PK) profile was determined. […] Plasma concentrations of the compound of Formula (Ia) were maintained above the target trough concentration of 20 nM for at least 14 days (2 weeks)."}, "[2]": {"assay": "Plasma PK after single oral administration in solution, cynomolgus monkey", "type": "in vivo", "procedure": "An oral formulation containing a compound of Formula (Ia) in […], 20% propylene glycol, 45 PEG 300, and 30% 0.01 N HCl was prepared. The formulation was orally administered to male rat, dog, cynomolgus monkey, and rhesus monkey according to the doses shown in Table 8 below."}, "[3]": {"details": "dog, plasma, oral SDD tablet of the sodium salt (Table T composition, Opadry II White film coat), mean ± SD, n=6"}, "[4]": {"details": "male, plasma, single oral 4.0 mg/kg, solution in 5% ethanol/20% propylene glycol/45% PEG 300/30% 0.01 N HCl, mean ± SD, n=3"}}, "data": [{"smiles": "CC(C)(C#Cc1ccc(-c2ccc(Cl)c3c(NS(C)(=O)=O)nn(CC(F)(F)F)c23)c([C@H](Cc2cc(F)cc(F)c2)NC(=O)Cn2nc(C(F)(F)F)c3c2C(F)(F)[C@@H]2C[C@H]32)n1)S(C)(=O)=O", "note": "[Formula (Ia), N—((S)-1-(3-(4-chloro-3-(methylsulfonamido)-1-(2,2,2-trifluoroethyl)-1H-indazol-7-yl)-6-(3-methyl-3-(methylsulfonyl)but-1-yn-1-yl)pyridin-2-yl)-2-(3,5-difluorophenyl)ethyl)-2-((3bS,4aR)-5,5-difluoro-3-(trifluoromethyl)-3b,4,4a,5-tetrahydro-1H-cyclopropa[3,4]cyclopenta[1,2-c]pyrazol-1-yl)acetamide]", "values": [{"measurement": "Time plasma concentrations maintained above the target trough concentration of 20 nM", "setting": "[1]; oral SDD tablet of the sodium salt", "result": "at least 14 days"}, {"measurement": "AUC(0-inf)", "setting": "[1]; [3]", "result": "18.5 ± 11.1", "unit": "µM·h"}, {"measurement": "Cmax", "setting": "[1]; [3]", "result": "0.718 ± 0.409", "unit": "µM"}, {"measurement": "Tmax", "setting": "[1]; [3]", "result": "5.3 ± 3.3", "unit": "h"}, {"measurement": "AUC(0-t)", "setting": "[1]; dog, plasma, oral SDD tablet of the sodium salt (Table T composition, Opadry II White film coat), mean ± SD, n=6, read-out: AUC0-72h", "result": "15.8 ± 10", "unit": "µM·h"}, {"measurement": "concentration at 72 h", "setting": "[1]; dog, plasma, oral SDD tablet of the sodium salt (Table T composition, Opadry II White film coat), mean ± SD, n=6, read-out: C72h", "result": "0.0614 ± 0.03", "unit": "µM"}, {"measurement": "bioavailability", "setting": "[2]; male, plasma, single oral 4.0 mg/kg, same solution, calculated based on AUC0-24h, mean ± SD, n=3, read-out: F (oral bioavailability)", "result": "2.2 ± 0.6", "unit": "%"}, {"measurement": "Cmax", "setting": "[2]; [4]", "result": "17.7 ± 5.6", "unit": "µM"}, {"measurement": "Tmax", "setting": "[2]; [4]", "result": "8.7 ± 3.1", "unit": "h"}, {"measurement": "AUC(0-t)", "setting": "[2]; male, plasma, single oral 4.0 mg/kg, solution in 5% ethanol/20% propylene glycol/45% PEG 300/30% 0.01 N HCl, mean ± SD, n=3, read-out: AUC0-24h", "result": "298 ± 85", "unit": "µM·h"}, {"measurement": "F % (bioavailability), in words", "setting": "[2]; oral solution", "result": "low"}]}]}
